Patent publication US12180509B2, “Methods for reprograming non-pluripotent cells into pluripotent stem cells” (Beihao Stem Cell and Regenerative Medicine Research …, priority 2015, dated 2024)
Structures can show the parent of a compound that is named as a salt.

What was measured:
Type in all cases: cell-based, mouse
MEFs from OG mice [1] = experiment: Screen for chemical substitutes of Oct4 in OG-MEFs infected with Sox2, Klf4 and c-Myc; settings: OG-MEFs with viral expression of Sox2, Klf4 and c-Myc, no Oct4
Method: To identify chemical substitutes of Oct4, MEFs from OG mice were plated at a density of 20,000 cells per well of a 12-well plate and infected with lentiviruses encoding Sox2, Klf4 and c-Myc. After infection, the medium was replaced with LIF-free ESC culture medium. Individual chemicals from small-molecule libraries were added to each well. The medium and chemicals were changed every 4 days. Chemical treatments were continued for 14-20 days or until GFP-positive colonies appeared. Primary hits were selected for further confirmation and optimization.
Small molecules that enable reprogramming in the absence of Oct4 were searched using Oct4 promoter-driven green fluorescent protein (GFP) expression (OG) mouse embryonic fibroblasts (MEFs), with viral expression of Sox2, Klf4, and c-Myc.

MEFs = experiment: CiPSC induction from MEFs with small-molecule combinations (no XEN priming); settings: for replacement of DZNep in CiPSC generation: SAH hydrolase inhibitor in combination with VC6TF
Method: The initial cells (MEFs, MNFs, MAFs or ADSCs) were seeded at a density of 50,000 cells per well of a 6-well plate or 300,000 cells per 100 mm dish. On the next day (day 0), the original medium was replaced with chemical reprogramming medium containing the small-molecule combinations. The small-molecule combinations-containing medium was changed every 4 days. On day 12, these cells were washed in PBS and digested with 0.25% Trypsin-EDTA (Invitrogen) at 37° C. for 3-5 min. After neutralization, the cell clumps were dissociated into single cells by thorough pipetting. The cells were harvested (300,000-1,000,000 cells per well of a 6-well plate) and replated at a density of 300,000-500,000 cells per well of a 6-well plate in the chemical reprogramming medium containing the small-molecule combinations. DZNep was added to the cell cultures on day 16 or day 20. On day 28-36, the small-molecule combinations including DZNep were removed. Meanwhile, the chemical reprogramming medium was replaced with 2i-medium. After another 8-12 days, 2i-competent, ESC-like and GFP-positive colonies were counted as primary CiPSC colonies. For CiPSC induction from wild-type cells without OG reporter, 2i-competent and ESC-like colonies were counted as primary CiPSC colonies. These CiPSC colonies were picked up for expansion and characterization. Alternatively, CiPSCs could be induced without replating on day 12.

[2] = test system: pluripotency-related genes and XEN marker genes; experiment: Real-time PCR of pluripotency, XEN and MET genes during chemical reprogramming; settings: for endogenous expression of Sall4 and Sox2 on withdrawal of the chemical: chemicals withdrawn from VC6TF, after 12 days; for expression of XEN marker genes (Sall4, Gata4, Sox17): stage 1, fibroblasts to XEN-like cells
Method: Total RNA from an entire well of cultured cells was isolated using the RNeasy Plus MiniKit (QIAGEN). For a single colony, RNA was isolated using the RNeasy Micro Kit (QIAGEN). RNA was converted to cDNA using TransScript First-Strand cDNA Synthesis SuperMix (TransGen Biotech). PCR was carried out using Power SYBRR Green PCR Master Mix (Applied Biosystems) and performed on an ABI Prism 7300 Sequence Detection System. The data were analyzed using the delta-delta Ct method.

MEFs from OG mice [3] = experiment: Screen for small molecules that facilitate late reprogramming (DOX-inducible Oct4 plus VC6T); settings: VC6T plus DOX-induced Oct4 for the first 4-8 days
Method: To identify small molecules that facilitate late reprogramming, a doxycycline (DOX)-inducible Oct4 expression screening system was used (Li, et al., Cell Res. 21:196-204 (2011)).
MEFs from OG mice were plated as described above and infected with Fu-tet-hOct4 and FUdeltaGW-rtTA lentiviruses. The induction protocol was carried out as described above.
After infection, the culture medium was replaced with LIF-free ESC culture medium containing VC6T (VPA, CHIR99021, 616452, Tranylcypromine) plus DOX (1 μg/ml). Alternatively, MEFs harboring DOX-inducible Oct4 from Tet-On POUSF1 mouse strain B6; 129-Gt (ROSA)26Sor^tm1(TrtTA*M2)Jae Colla1^tm2(tetO-Pou5f1)Jae/J were used in this screen (Li, et al., Cell Res., 21:196-204 (2011)). These two DOX-inducible systems were only used in this screen, but not in complete chemical reprogramming. Individual chemicals from small-molecule libraries were added to each well. Small molecules were added at different culture time points. 5-aza-C(5-Azacytidine) and DZNep were added from day 8. The medium and chemicals were changed every 4 days; DOX was added only for the first 4-8 days. Chemical treatments were continued for 16-24 days or until GFP-positive colonies appeared. Primary hits were selected for further confirmation and optimization. CiPSC colonies were counted on day 44. […]

cAMP = experiment: Intracellular cAMP quantification (Direct cAMP ELISA); settings: MEF, FSK 10 μM versus DMSO control
Method: (§1) CAMP was quantified using the Direct cAMP ELISA Kit (Enzo) according to the manufacturer's protocol. For SAM and SAH quantification, cultured cells (1,000,000 cells) were trypsinized and homogenized by ultrasonication in 200 μl PBS. Then 40 μl of 400 mg/ml TCA was added. Cell extracts were incubated on ice for 30 min. After centrifugation at 4° C. (13,000 rpm, 15 min), the supernatants were filtered through a 0.22 μm filter and analyzed by high-performance liquid chromatography (HPLC, Shimadzu) with HILIC columns (Waters).
The effect of inhibiting adenylate cyclase on the number of colonies generated by VC6TFZ was tested. […] The effect of replacing FSK with the cAMP analog (DBcAMP), alone or in combination with phosphodiesterase inhibitors, IBMX, or the phosphodiesterase inhibitor, rolipram and IBMX, on cell reprograming was also tested. Both DBcAMP and IBMX were used at 50 μM in the combination treatment.

[4] = test system: intracellular levels SAH to SAM; experiment: SAM and SAH quantification by HPLC; settings: during chemical reprogramming, relative to MEFs
Method: as §1

Oct4 promoter = experiment: DNA methylation (bisulfite sequencing) and H3K9 methylation (ChIP) at the Oct4 promoter; settings: presence versus absence of DZNep, day 32
Method: Genomic DNA was modified by bisulfite treatment and purified using the MethylCode™ Bisulfite Conversion Kit (Invitrogen) according to the manufacturer's protocol. The amplified fragments were cloned into the pEASY-blunt Vector (Transgene). Ten randomly picked clones from each sample were sequenced. ChIP was performed using the EZ-Magna ChIP A/G Kit (Millipore) according to the manufacturer's protocol. Anti-H3K27me3 (Abcam, ab6002), anti-H3K9me2 (Millipore, 07-441), anti-H3K4me3 (Abcam, ab8580) and anti-H3K9ac (Abcam, ab4441) antibodies were used. Following immunoprecipitation, DNA was analyzed by real-time PCR.

Structure (SMILES): Cc1[nH]c2ccc(O)cc2c1CCN [2-Me-5HT, 2-Methyl-5-hydroxytryptamine hydrochloride]
- chemical substitute for Oct4 (iPSC induction) (MEFs from OG mice [1]): identified as chemical “substitutes” for Oct4

Structure (SMILES): C/C(=C\c1ccc(C(=O)O)cc1)c1ccc2c(c1)C(C)(C)CCC2(C)C [TTNPB, 4-[(E)-2-(5,6,7,8-Tetrahydro-5,5,8,8-tetramethyl-2-naphthalenyl)-1-propenyl]benzoic acid]
- chemical reprogramming efficiency enhanced, factor (MEFs; TTNPB as booster added to the chemical cocktail (C6FZ or VC6TFZ) in MEFs): ≤ 40
- reprogramming frequency (MEFs; with TTNPB, comparable to transcription factor-induced reprogramming): up to 0.2%

Structure (SMILES): C[C@H]1O[C@@H](n2cnc3c(N)ncnc32)C[C@@H]1O [2′5′ddAdo, 2′,5′-Dideoxyadenosine]
- number of colonies formed by VC6TFZ (MEFs; inhibition of adenylate cyclase during VC6TFZ treatment): decreased the number of colonies

Structure (SMILES): NC(=O)c1ccc(-c2nc(-c3ccc4c(c3)OCCO4)c(-c3ccccn3)[nH]2)cc1 [D4476, 4-[4-(2,3-Dihydro-1,4-benzodioxin-6-yl)-5-(2-pyridinyl)-1H-imidazol-2-yl]benzamide]
- chemical substitute for Oct4 (iPSC induction) (MEFs from OG mice [1]): identified as chemical “substitutes” for Oct4

Structure (SMILES): Cc1cccc(-c2n[nH]cc2-c2ccc3ncccc3n2)n1 [compound 616452, 2-(3-(6-Methylpyridin-2-yl)-1H-pyrazol-4-yl)-1,5-naphthyridine]
- endogenous expression of Sall4 and Sox2 on withdrawal of the chemical [2]: essential in activating the endogenous expression of Sall4 and Sox2

Structure (SMILES): CC1(C)CCC(C)(C)c2cc(C(=O)Nc3ccc(C(=O)O)cc3)ccc21 [AM580, 4-[(5,6,7,8-Tetrahydro-5,5,8,8-tetramethyl-2-naphthalenyl)carboxamido]benzoic acid]
- expression of XEN marker genes (Sall4, Gata4, Sox17) [2]: promote the expression of XEN marker genes

Structure (SMILES): Cc1cnc(-c2cnc(NCCNc3ccc(C#N)cn3)nc2-c2ccc(Cl)cc2Cl)[nH]1 [CHIR99021, 6-[[2-[[4-(2,4-Dichlorophenyl)-5-(5-methyl-1H-imidazol-2-yl)-2-pyrimidinyl]amino]ethyl]amino]-3-pyridinecarbonitrile]
- endogenous expression of Sall4 and Sox2 on withdrawal of the chemical [2]: essential in activating the endogenous expression of Sall4 and Sox2
- increase in the expression of Gata4, Sox17 and EpCAM ([2]; increased concentration of CHIR99021 (20 μM versus 10 μM) in VC6TF, 12 days): up to 10 fold

Structure (SMILES): CCCCC[C@H](O)/C=C/[C@H]1[C@H](O)CC(=O)[C@@H]1C/C=C\CCCC(=O)O [Prostaglandin E2]
- small molecule hit facilitating late reprogramming (MEFs from OG mice [3]): identified in this screen

Structure (SMILES): Nc1ncnc2c1ncn2[C@@H]1C=C(CO)[C@@H](O)[C@H]1O [NEPA, (−)-Neplanocin A]
- replacement of DZNep in CiPSC generation (MEFs): useful in replacing DZNep in reprogramming

Structure (SMILES): COc1ccc(C2CNC(=O)C2)cc1OC1CCCC1 (centres unmarked) [Rolipram]
- small molecule hit facilitating late reprogramming (MEFs from OG mice [3]): identified in this screen

Structure (SMILES): C=C[C@@]1(C)CC(=O)[C@]2(O)[C@@]3(C)[C@@H](O)CCC(C)(C)[C@@H]3[C@H](O)[C@H](OC(C)=O)[C@@]2(C)O1 [Forskolin]
- intracellular cAMP level (cAMP): significantly elevates the CAMP level
- chemical substitute for Oct4 (iPSC induction) (MEFs from OG mice [1]): identified as chemical “substitutes” for Oct4
- endogenous expression of Sall4 and Sox2 on withdrawal of the chemical [2]: essential in activating the endogenous expression of Sall4 and Sox2
- small molecule hit facilitating late reprogramming (MEFs from OG mice [3]): identified in this screen

Structure (SMILES): Nc1ncn([C@@H]2O[C@H](CO)[C@@H](O)[C@H]2O)c(=O)n1 [5-Azacytidine]
- small molecule hit facilitating late reprogramming (MEFs from OG mice [3]): identified in this screen

Structure (SMILES): Nc1nccc2c1ncn2[C@@H]1C=C(CO)[C@@H](O)[C@H]1O [DZNep, 3-deazaneplanocin A]
- concentration ratio of SAH to SAM [4]: elevates the concentration ratio of SAH to S-adenosylmethionine (SAM)
- DNA methylation and H3K9 methylation at the Oct4 promoter (Oct4 promoter): significantly decreased
- Oct4 expression ([2]; after addition of DZNep in the late phase of chemical reprogramming): enhanced significantly
- small molecule hit facilitating late reprogramming (MEFs from OG mice [3]): identified in this screen

Structure (SMILES): CCCC(=O)[O-].[Na+] [sodium butyrate, Sodium butyrate]
- small molecule hit facilitating late reprogramming (MEFs from OG mice [3]): identified in this screen

Structure (SMILES): Nc1ncnc2c1ncn2C(C=O)OC(C=O)CO (centres unmarked) [Adox, Adenosine, periodate oxidized]
- replacement of DZNep in CiPSC generation (MEFs): useful in replacing DZNep in reprogramming

Structure (SMILES): CC(C)N(CCCNC(=O)Nc1ccc(C(C)(C)C)cc1)C[C@H]1O[C@@H](n2ccc3c(N)ncnc32)[C@H](O)[C@@H]1O [EPZ004777, 1-(3-((((2R,3S,4R,5R)-5-(4-amino-7H-pyrrolo[2,3-d]pyrimidin-7-yl)-3,4-dihydroxytetrahydrofuran-2-yl)methyl)(isopropyl)amino)propyl)-3-(4-(tert-butyl)phenyl)urea]
- expression of XEN marker genes (Sall4, Gata4, Sox17) [2]: promote the expression of XEN marker genes

Structure (SMILES): O=C(O)[C@@H](Cc1c[nH]c2ccccc12)N1C(=O)C2=CCCC=C2C1=O [RG108]
- small molecule hit facilitating late reprogramming (MEFs from OG mice [3]): identified in this screen

Structure (SMILES): Nc1nccc2c1ncn2[C@@H]1O[C@H](CO)[C@@H](O)[C@H]1O [DZA, 3-Deazaadenosine]
- replacement of DZNep in CiPSC generation (MEFs): useful in replacing DZNep in reprogramming
